Holding throughout (type): in vivo
Data set [1] concerns Beet Armyworm (BAW) (Spodoptera exigua). Description: Bioassay on Beet Armyworm (BAW), 128-well diet tray assay. The note with it: Spodoptera exigua, 168 h; 50 μg/cm2 on artificial diet, second instar larvae, five to seven days; read-out: Rating BAW (% Control (or Mortality)). In short, it runs like this:
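Spodoptera exigua larvae on diet trays held 5–7 days at 25 °C, 14:10 light-dark. Percent mortality scored per well and averaged over eight wells.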

For data set [2], the system named is Corn Earworm (CEW) (Helicoverpa zea). Description: Bioassay on Corn Earworm (CEW), 128-well diet tray assay. The note with it: Helicoverpa zea, 168 h, second instar larvae, five to seven days; for mortality at 50 µg/cm2: 50 μg/cm2 on artificial diet, read-out: Rating CEW (% Control (or Mortality)). The gist of the method:
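Helicoverpa zea larvae in 128-well diet trays, held at 25 °C, 14:10 light-dark for five to seven days. Percent mortality scored per well and averaged over eight wells.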

The test system of data set [3] is Green Peach Aphid (GPA) (Myzus persicae). Description: Bioassay on Green Peach Aphid (GPA), foliar spray on cabbage seedlings. The settings on record: Myzus persicae, 72 h; 200 ppm foliar spray on cabbage seedlings, graded after three days, Abbott corrected % control; read-out: Rating GPA (% Control (or Mortality)). As to the method:
Certain molecules disclosed in this document were tested against GPA using procedures described in the following example. In the reporting of the results, the “GPA Rating Table” was used (See Table Section).
Cabbage seedlings grown in 3-inch pots, with 2-3 small (3-5 cm) true leaves, were used as test substrate. The seedlings were infested with 20-50 GPA (wingless adult and nymph stages) one day prior to chemical application. Four pots with individual seedlings were used for each treatment. Test compounds (2 mg) were dissolved in 2 mL of acetone/MeOH (1:1) solvent, forming stock solutions of 1000 ppm test compound. The stock solutions were diluted 5× with 0.025% Tween 20 in H2O to obtain the solution at 200 ppm test compound. A hand-held aspirator-type sprayer was used for spraying a solution to both sides of […] leaves until runoff. Reference plants (solvent check) were sprayed with the diluent only containing 20% by volume of acetone/MeOH (1:1) solvent. Treated plants were held in a holding room for three days at approximately 25° C. and ambient relative humidity (RH) prior to grading. Evaluation was conducted by counting the number of live aphids per plant under a microscope. Percent Control was measured by using Abbott's correction formula (W.S. Abbott, “A Method of Computing the Effectiveness of an Insecticide” J. Econ. Entomol. 18 (1925), pp. 265-267) as follows.
Corrected % Control=100*(X−Y)/X • where • X=No. of live aphids on solvent check plants and • Y=No. of live aphids on treated plants

For data set [4], the system named is Yellow Fever Mosquito (YFM) (Aedes aegypti). The note with it: about 1 day-old larvae, scored on mortality after 3 days. The procedure:
Certain molecules disclosed in this document were tested against YFM using procedures described in the following paragraph. In the reporting of the results, the “YFM Rating Table” was used (See Table Section).
Master plates containing 400 μg of a molecule dissolved in 100 μL of dimethyl sulfoxide (DMSO) (equivalent to a 4000 ppm solution) are used. A master plate of assembled molecules contains 15 μL per well. To this plate, 135 μL of a 90:10 water:acetone mixture is added to each well. A robot (Biomek® NXP Laboratory Automation Workstation) is programmed to dispense 15 μL aspirations from the master plate into an empty 96-well shallow plate (“daughter” plate). There are 6 reps (“daughter” plates) created per master. The created daughter plates are then immediately infested with YFM larvae.
The day before plates are to be treated, mosquito eggs are placed in Millipore water containing liver powder to begin hatching (4 g. into 400 ml). After the daughter plates are created using the robot, they are infested with 220 μL of the liver powder/larval mosquito mixture (about 1 day-old larvae). After plates are infested with mosquito larvae, a non-evaporative lid is used to cover the plate to reduce drying. Plates are held at room temperature for 3 days prior to grading. After 3 days, each well is observed and scored based on mortality.

Molecules are shown by their SMILES.

Consider `Cc1cccc(C)c1N/C(=N/C(=O)Nc1ccc(-c2ncn(-c3ccc(OC(F)(F)F)cc3)n2)cc1)SCOC(=O)C(C)C` [Molecule A4, (E)-(N′-(2,6-Dimethylphenyl)-N-(4-(1-(4-(trifluoromethyoxy)phenyl)-1H-1,2,4-triazol-3-yl)phenylcarbamoyl)carbamimidoylthio)methyl isobutyrate], for which the mortality at 50 µg/cm2 in data set [1] and in data set [2] was 50 to 100% throughout. In data set [3], the mortality at 200 ppm lay within 0 to 80%. In addition, the “Rating YFM (% Control (or Mortality))” value in data set [4] is given as “A (80-100)”.
Take `COc1ccc(N2C(=O)CS/C2=N\C(=O)Nc2ccc(-c3ncn(-c4ccc(OC(F)(F)F)cc4)n3)cc2)c(C)c1` [Molecule A110]: the mortality at 50 µg/cm2 in data set [1] was in the range of 50 to 100%. In addition, in data set [2] (0.5 μg/cm2 on artificial diet, read-out: Rating CEW (% Control (or Mortality)), *Tested at 0.5 μg/cm2), the mortality at 0.5 µg/cm2 lay within 50 to 100%. For the same compound, in data set [3], the mortality at 200 ppm came to 0%. Also, the “Rating YFM (% Control (or Mortality))” value in data set [4] is on record as “A (80-100)”.
In the case of `COc1ccc(N/C(O)=C/C(=O)Nc2ccc(-c3ncn(-c4ccc(OC(F)(F)F)cc4)n3)cc2)c(C(C)C)c1` [Molecule A34, (Z)-3-hydroxy-3-(2-isopropyl-4-methoxyphenylamino)-N-(4-(1-(4-(trifluoromethoxy)phenyl)-1H-1,2,4-triazol-3-yl)phenyl)acrylamide], the mortality at 50 µg/cm2 in data set [1] and in data set [2] was 50 to 100% in each case. Besides, the mortality at 200 ppm in data set [3] was found to be 0%. The “Rating YFM (% Control (or Mortality))” value in data set [4] was “A (80-100)”.
As for `CCc1ccccc1N1C(=O)CS/C1=N\C(=O)Nc1ccc(-c2ncn(-c3ccc(OC(F)(F)F)cc3)n2)cc1` [Molecule A35], the mortality at 50 µg/cm2 in data set [1] and in data set [2] was 50 to 100% each time. Moreover, in data set [3], the mortality at 200 ppm turned out to be 0%. Besides, the “Rating YFM (% Control (or Mortality))” value in data set [4] was “A (80-100)”.
As to `Cc1cccc(C)c1N/C(=N/C(=O)Nc1ccc(-c2ncn(-c3ccc(C(F)(F)F)cc3)n2)cc1)SCOC(=O)C(C)C` [Molecule A3, (E)-(N′-(2,6-Dimethylphenyl)-N-(4-(1-(4-(trifluoromethyl)phenyl)-1H-1,2,4-triazol-3-yl)phenylcarbamoyl)carbamimidoylthio) methyl isobutyrate], the mortality at 50 µg/cm2 in data set [1] and in data set [2] was 50 to 100% each time. In addition, the mortality at 200 ppm in data set [3] amounted to 0%. For the same compound, the “Rating YFM (% Control (or Mortality))” value in data set [4] is given as “A (80-100)”.
With `COc1cc(C)c(-n2c(C)cs/c2=N\C(=O)Nc2ccc(-c3ncn(-c4ccc(OC(F)(F)F)cc4)n3)cc2)c(C)c1` [Molecule A44], the mortality at 50 µg/cm2 in data set [1] and in data set [2] was 50 to 100% throughout. The mortality at 200 ppm in data set [3] is 0 to 80%. Further, in data set [4], the “Rating YFM (% Control (or Mortality))” value is “A (80-100)”.
For the compound `Cc1cccc(C)c1N1C(=O)CS/C1=N\C(=O)Nc1ccc(-c2ncn(-c3ccc(OC(F)(F)F)cc3)n2)cc1` [Molecule A14, (Z)-1-(3-(2,6-dimethylphenyl)-4-oxothiazolidin-2-ylidene)-3-(4-(1-(4-(trifluoromethoxy)phenyl)-1H-1,2,4-triazol-3-yl)phenyl)urea], the mortality at 50 µg/cm2 in data set [1] and in data set [2] was 50 to 100% throughout. For the same compound, in data set [3], the mortality at 200 ppm fell in the range of 0 to 80%. Further, the “Rating YFM (% Control (or Mortality))” value in data set [4] is given as “A (80-100)”.

Source of the values: patent US20150196033A1, “PESTICIDAL COMPOSITIONS AND PROCESSES RELATED THERETO” (priority 2012, published 2015).
